Test results taken from ChEMBL document CHEMBL5335800, “Focused Screening Identifies Different Sensitivities of Human TET Oxygenases to the Oncometabolite 2-Hydroxyglutarate” (J Med Chem, 2024).
Active and inactive are the calls of the source. No cut-off for these calls is given here.

Assays:
[1] = biological target: T1, Methylcytosine dioxygenase TET1 (Homo sapiens, UniProt Q8NFU7); assay type: cell-based; conditions: U2OS, dose 1.0 mM
[2] = biological target: T1, Methylcytosine dioxygenase TET1; assay: Inhibition of N-terminal 3xFlag-tagged human TET1 catalytic domain (E1418 to V2136 residues) expressed in Sf9 cells using 5-methylcytosine as substrate preincubated for 10 mins followed by DNA-cofactor addition and measured after 30 mins by Alphascreen assay
[3] = biological target: T2, Methylcytosine dioxygenase TET3 (Homo sapiens, UniProt O43151); assay: Inhibition of human TET3 catalytic domain (E824 to I1795 residues) expressed in mammalian cells using 5-methylcytosine as substrate preincubated for 10 mins followed by DNA-cofactor addition and measured after 10 mins by Alphascreen assay
U2OS [4] = assay type: toxicity, cell-based; conditions: human
Homo sapiens [5] = species on record: Homo sapiens; assay: (§1) Inhibition of N-terminal His-tagged recombinant human TET2 catalytic domain LCIdel mutant (D1129 to G1936 residues with Y1481 to N1843 replaced by a 3 x GGGGS linker) expressed in Escherichia coli BL21 (DE3) using 5-methylcytosine as substrate at 100 uM preincubated for 10 mins followed by DNA-cofactor addition and measured after 10 mins by Alphascreen assay relative to control; conditions: time 20.0 min
Homo sapiens [6] = species on record: Homo sapiens; assay: as §1, with “Competitive inhibition” for “Inhibition”, “substrate” for “substrate at 100 uM”, “addition in presence of 2-OG” for “addition”, “assay” for “assay relative to control”; conditions: time 20.0 min
[7] = biological target: T1, Methylcytosine dioxygenase TET1; assay: Inhibition of N-terminal 3xFlag-tagged human TET1 catalytic domain (E1418 to V2136 residues) expressed in Sf9 cells using 5-methylcytosine as substrate at 100 uM preincubated for 10 mins followed by DNA-cofactor addition and measured after 30 mins by Alphascreen assay relative to control; conditions: time 40.0 min
[8] = biological target: T2, Methylcytosine dioxygenase TET3; assay: Inhibition of human TET3 catalytic domain (E824 to I1795 residues) expressed in mammalian cells using 5-methylcytosine as substrate at 100 uM preincubated for 10 mins followed by DNA-cofactor addition and measured after 10 mins by Alphascreen assay relative to control; conditions: time 20.0 min
[9] = biological target: T3, Methylcytosine dioxygenase TET2 (Homo sapiens, UniProt Q6N021); conditions: sf9
[10] = biological target: T3, Methylcytosine dioxygenase TET2; assay: biochemical
[11] = biological target: T1, Methylcytosine dioxygenase TET1; assay type: cell-based; conditions: U2OS, dose 3.0 mM
Homo sapiens [12] = species on record: Homo sapiens; conditions: dose 100.0 µM, time 20.0 min
U2OS [13] = assay type: toxicity, cell-based; conditions: human; remark: listed apart in the source
[14] = biological target: T1, Methylcytosine dioxygenase TET1; assay type: cell-based; conditions: U2OS, dose > 33.0 µM
[15] = biological target: T1, Methylcytosine dioxygenase TET1

T1 sequence (Q8NFU7 whole entry, the tested form may be a part): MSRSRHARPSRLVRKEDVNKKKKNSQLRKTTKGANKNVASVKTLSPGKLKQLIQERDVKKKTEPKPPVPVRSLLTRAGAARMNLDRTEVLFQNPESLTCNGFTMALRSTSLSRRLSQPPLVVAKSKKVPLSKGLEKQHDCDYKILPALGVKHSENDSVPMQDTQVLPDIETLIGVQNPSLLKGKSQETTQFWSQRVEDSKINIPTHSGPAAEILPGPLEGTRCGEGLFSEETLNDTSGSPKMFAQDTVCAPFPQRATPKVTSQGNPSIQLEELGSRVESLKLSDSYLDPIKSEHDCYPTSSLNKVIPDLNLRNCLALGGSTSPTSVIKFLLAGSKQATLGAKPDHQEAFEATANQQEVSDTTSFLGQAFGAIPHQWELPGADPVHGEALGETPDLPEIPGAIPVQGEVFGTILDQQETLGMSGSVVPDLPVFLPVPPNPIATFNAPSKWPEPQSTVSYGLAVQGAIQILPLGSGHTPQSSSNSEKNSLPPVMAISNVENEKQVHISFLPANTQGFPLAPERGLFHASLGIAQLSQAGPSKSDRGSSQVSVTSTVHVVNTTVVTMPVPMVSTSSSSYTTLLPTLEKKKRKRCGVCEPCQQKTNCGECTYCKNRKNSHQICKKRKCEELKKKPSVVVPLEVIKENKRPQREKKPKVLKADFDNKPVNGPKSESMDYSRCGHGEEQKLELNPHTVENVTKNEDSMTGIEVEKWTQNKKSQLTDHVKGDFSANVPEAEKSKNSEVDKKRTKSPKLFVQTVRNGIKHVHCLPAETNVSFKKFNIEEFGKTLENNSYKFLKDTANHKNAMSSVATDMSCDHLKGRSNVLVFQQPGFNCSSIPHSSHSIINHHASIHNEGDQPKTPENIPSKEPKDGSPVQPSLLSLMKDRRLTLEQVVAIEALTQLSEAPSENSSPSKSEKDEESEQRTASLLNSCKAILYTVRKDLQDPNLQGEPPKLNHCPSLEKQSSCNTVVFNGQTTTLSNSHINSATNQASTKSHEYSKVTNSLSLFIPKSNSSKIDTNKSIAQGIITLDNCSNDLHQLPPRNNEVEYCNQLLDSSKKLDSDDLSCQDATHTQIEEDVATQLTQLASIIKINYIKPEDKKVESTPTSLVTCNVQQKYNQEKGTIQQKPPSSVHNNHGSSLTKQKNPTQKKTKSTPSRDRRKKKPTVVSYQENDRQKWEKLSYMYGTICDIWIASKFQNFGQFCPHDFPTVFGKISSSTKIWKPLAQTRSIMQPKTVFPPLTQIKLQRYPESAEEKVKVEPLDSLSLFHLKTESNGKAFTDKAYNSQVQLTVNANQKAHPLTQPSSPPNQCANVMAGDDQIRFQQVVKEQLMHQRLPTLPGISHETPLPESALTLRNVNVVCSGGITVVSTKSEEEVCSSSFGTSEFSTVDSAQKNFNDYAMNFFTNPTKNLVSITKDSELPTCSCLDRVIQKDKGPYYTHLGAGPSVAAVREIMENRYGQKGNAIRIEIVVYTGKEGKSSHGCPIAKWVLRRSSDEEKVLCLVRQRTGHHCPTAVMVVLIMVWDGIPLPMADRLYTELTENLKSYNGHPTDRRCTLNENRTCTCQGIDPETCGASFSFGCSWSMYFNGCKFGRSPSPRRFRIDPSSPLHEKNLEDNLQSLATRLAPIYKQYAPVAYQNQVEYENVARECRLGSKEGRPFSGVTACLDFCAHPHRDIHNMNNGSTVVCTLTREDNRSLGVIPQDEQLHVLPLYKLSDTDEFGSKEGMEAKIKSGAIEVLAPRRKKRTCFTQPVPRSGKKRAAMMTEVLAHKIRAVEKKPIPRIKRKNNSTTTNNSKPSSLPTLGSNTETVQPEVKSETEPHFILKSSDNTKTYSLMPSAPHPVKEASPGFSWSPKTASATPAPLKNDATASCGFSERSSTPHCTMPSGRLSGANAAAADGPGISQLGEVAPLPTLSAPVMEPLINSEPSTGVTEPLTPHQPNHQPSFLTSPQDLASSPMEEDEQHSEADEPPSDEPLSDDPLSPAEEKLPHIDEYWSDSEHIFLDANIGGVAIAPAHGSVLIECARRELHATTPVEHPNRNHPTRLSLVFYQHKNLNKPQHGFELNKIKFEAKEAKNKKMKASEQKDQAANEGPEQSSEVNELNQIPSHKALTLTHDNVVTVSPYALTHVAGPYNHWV
T2 sequence (O43151 whole entry, the tested form may be a part): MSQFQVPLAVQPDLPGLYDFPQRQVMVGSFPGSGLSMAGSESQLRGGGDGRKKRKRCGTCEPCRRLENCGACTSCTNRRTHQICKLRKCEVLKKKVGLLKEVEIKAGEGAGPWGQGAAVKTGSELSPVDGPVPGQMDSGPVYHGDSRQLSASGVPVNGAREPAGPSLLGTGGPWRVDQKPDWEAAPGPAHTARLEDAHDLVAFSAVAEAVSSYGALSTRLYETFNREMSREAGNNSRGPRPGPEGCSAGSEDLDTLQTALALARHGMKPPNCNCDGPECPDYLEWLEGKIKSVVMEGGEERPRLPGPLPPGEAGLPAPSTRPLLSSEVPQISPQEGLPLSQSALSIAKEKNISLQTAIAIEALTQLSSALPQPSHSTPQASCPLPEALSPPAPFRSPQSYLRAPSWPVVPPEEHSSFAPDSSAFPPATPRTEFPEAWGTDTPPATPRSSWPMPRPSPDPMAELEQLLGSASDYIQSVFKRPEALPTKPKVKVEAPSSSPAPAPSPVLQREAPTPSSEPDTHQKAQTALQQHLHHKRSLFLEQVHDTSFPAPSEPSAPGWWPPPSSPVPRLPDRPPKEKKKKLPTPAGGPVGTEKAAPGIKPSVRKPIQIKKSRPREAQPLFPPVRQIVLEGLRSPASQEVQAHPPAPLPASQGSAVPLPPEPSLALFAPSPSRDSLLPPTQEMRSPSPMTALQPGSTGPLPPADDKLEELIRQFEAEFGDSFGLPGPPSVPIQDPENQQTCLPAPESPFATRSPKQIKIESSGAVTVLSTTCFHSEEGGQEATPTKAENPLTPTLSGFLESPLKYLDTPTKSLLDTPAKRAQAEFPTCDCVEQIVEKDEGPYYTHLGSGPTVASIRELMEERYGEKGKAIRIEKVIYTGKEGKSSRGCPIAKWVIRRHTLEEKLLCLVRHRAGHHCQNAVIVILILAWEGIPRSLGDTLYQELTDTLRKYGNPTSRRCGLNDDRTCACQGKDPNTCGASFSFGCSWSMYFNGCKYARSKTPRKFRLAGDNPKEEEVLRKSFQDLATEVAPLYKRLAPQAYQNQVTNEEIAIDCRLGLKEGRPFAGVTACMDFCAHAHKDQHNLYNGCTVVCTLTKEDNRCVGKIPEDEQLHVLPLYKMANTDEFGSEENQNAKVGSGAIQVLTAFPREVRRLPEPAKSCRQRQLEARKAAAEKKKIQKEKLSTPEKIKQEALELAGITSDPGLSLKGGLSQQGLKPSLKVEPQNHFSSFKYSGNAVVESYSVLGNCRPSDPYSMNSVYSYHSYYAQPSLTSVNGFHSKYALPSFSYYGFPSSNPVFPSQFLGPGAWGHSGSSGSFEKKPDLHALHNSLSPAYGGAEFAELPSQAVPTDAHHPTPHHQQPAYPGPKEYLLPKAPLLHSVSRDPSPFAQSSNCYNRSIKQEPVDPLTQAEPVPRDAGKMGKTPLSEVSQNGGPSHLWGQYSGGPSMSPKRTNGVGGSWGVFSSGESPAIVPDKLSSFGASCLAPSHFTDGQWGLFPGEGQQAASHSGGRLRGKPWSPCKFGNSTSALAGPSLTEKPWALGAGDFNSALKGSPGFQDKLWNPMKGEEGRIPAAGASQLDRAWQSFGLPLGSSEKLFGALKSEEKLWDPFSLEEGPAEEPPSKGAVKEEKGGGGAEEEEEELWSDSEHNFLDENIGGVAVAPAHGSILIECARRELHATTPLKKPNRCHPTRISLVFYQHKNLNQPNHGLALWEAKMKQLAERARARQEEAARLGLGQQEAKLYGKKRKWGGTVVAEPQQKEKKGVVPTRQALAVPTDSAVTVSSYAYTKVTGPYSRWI

## COC(=O)c1ccnc(C(=O)OC)c1
[1]
  inhibition: inactive

## O=C(O)CNC(=O)c1nc(Cl)c2ccccc2c1O
[2]; read-out: pIC50 (converted)
  IC50: ≥ 100 µM
[2]; sf9, read-out: IC50
  IC50: ≥ 100 µM
[3]; read-out: IC50
  IC50: ≥ 100 µM
[3]; read-out: pIC50 (converted)
  IC50: ≥ 100 µM

## COC(=O)CCC(=O)C(=O)OC
U2OS [4]
  pCC50: < 2

## Cc1nc(C(=O)NCC(=O)O)c(O)c2ccc(Oc3ccccc3)cc12 [ROXADUSTAT]
[2]; read-out: pIC50 (converted)
  IC50: ≥ 100 µM
[2]; sf9, read-out: IC50
  IC50: ≥ 100 µM
Homo sapiens [5]
  inhibition: < 20%
[3]; read-out: IC50
  IC50: ≥ 100 µM
[3]; read-out: pIC50 (converted)
  IC50: ≥ 100 µM

## O=C(O)c1ccc(O)c2ncccc12
Homo sapiens [6]
  inhibition: Active

## O=C(O)CNC(=O)c1c(O)n(C2CCCCC2)c(=O)n(C2CCCCC2)c1=O
[2]; read-out: pIC50 (converted)
  IC50: ≥ 100 µM
[2]; sf9, read-out: IC50
  IC50: ≥ 100 µM
[7]
  inhibition: 63%
[8]
  inhibition: 36%
[9]
  IC50: ≥ 100 µM
[10]
  IC50: ≥ 100 µM
[3]; read-out: IC50
  IC50: ≥ 100 µM
[3]; read-out: pIC50 (converted)
  IC50: ≥ 100 µM

## CCCCCCCCOC(=O)[C@@H](O)CCC(=O)O
U2OS [4]
  pCC50: < 2.7
[11]
  inhibition: inactive

## CC(C)c1c(-c2ccccc2)[nH]c2c(C#N)cnn2c1=O
[2]; read-out: IC50
  IC50: > 100 µM
Homo sapiens [5]
  inhibition: < 20%
[7]
  inhibition: < 20%
[8]
  inhibition: < 20%
Homo sapiens [12]
  inhibition: < 20%
[3]; read-out: IC50
  IC50: > 100 µM

## O=C(O)CCNc1cc(N2CCc3ccccc3CC2)nc(-c2ccccn2)n1
[2]; read-out: IC50
  IC50: > 100 µM
Homo sapiens [5]
  inhibition: < 20%

## CN(c1ccccc1)c1ccc2c(c1)CCC[C@H]2CNc1cnccc1C(=O)O
[2]; read-out: IC50
  IC50: > 100 µM
[3]; read-out: IC50
  IC50: > 100 µM

## Cc1[nH]c2ccccc2c1CCNCc1ccc(/C=C/C(=O)NO)cc1 [PANOBINOSTAT]
U2OS [13]
  Activity: Dose-Dependent Effect
[14]
  inhibition: Active

## Nc1nc(=O)n([C@H]2C[C@H](O)[C@@H](CO)O2)cc1CO
Homo sapiens [12]
  inhibition: < 20%

## O=C(O)CNC(=O)c1c(O)c2ccccc2n(Cc2ccccc2)c1=O
[2]; read-out: pIC50 (converted)
  IC50: ≥ 100 µM
[2]; sf9, read-out: IC50
  IC50: ≥ 100 µM
[8]
  inhibition: < 20%
[3]; read-out: IC50
  IC50: ≥ 100 µM
[3]; read-out: pIC50 (converted)
  IC50: ≥ 100 µM

## Cc1cn([C@H]2C[C@H](O)[C@@H](CO)O2)c(=O)nc1N
Homo sapiens [12]
  inhibition: < 20%

## CCCCCCCCOC(=O)[C@H](O)CCC(=O)O
U2OS [4]
  pCC50: < 2.7

## O=c1c(-n2ccnn2)c[nH]n1-c1cc(N2CCOCC2)ncn1 [MOLIDUSTAT]
[15]
  EC50: ~100 µM

## CCN(CCN(C)C)C(=O)CNCc1cc(C(N)=O)ccn1
[2]; read-out: IC50
  IC50: > 100 µM
[7]
  inhibition: < 20%
[8]
  inhibition: < 20%
Homo sapiens [12]
  inhibition: < 20%
[3]; read-out: IC50
  IC50: > 100 µM
